According to article PMC11883425, “The synthesis and investigation of novel 3-benzoylbenzofurans and pyrazole derivatives for anti-HIV activity” (RSC Medicinal Chemistry, 2025):

How the values were obtained:
HIV-1 CAP210 pseudovirus = assay: HIV-1 whole virus inhibition assay, CAP210 pseudovirus (luciferase, TZM-bl cells); type: cell-based; conditions: TZM-bl, 48 h, read-out: IC50 (μM) CAP210, CAP210 pseudovirus, TZM-bl cells, 48 hours
Procedure: (§1) The HIV pseudoviruses were produced from the plasmids that were kindly donated by Dr Mthunzi-Kufa (CSIR, South Africa). Competent DH5α cells and STBL2 cells were transformed with envelope (CAP210.2.00.E8 and Q23.17) and backbone plasmid (HIV-1 SG3 ΔEnv) through heat-shock at 42 °C for 90 seconds and cooled in ice for 5 minutes. The transformed cells were grown in Luria Bertani medium containing 100 μg mL^−1 ampicillin and glycerol stocks were prepared. The transformed cells were grown at 37 °C in a 200 rpm shaking incubator overnight and the plasmids were isolated from the cells using a GeneJET plasmid Miniprep Kit (ThermoFisher Scientific Inc). The purity of the isolated plasmids was assessed for purity using Nanodrop. The HEK 293T cells were co-transfected with the backbone (10 μg) and envelope plasmids (5 μg) using the PolyFect Transfection Reagent (QIAGEN N.V) for 8–12 hours and the transfected cells were grown for 48 hours producing pseudoviruses which were collected, and stocks stored at −80 °C.
(§2) The compounds were serial diluted from 100 to1.56 μM in 96 well plates (Separation Scientific SA (Pty) Ltd) and incubated with either CAP210 or Q23 pseudoviruses (200 TCID50) and incubated for 1 hour. The TZM-bl cells (1 × 10^5 cells per mL containing 7.5 μg mL^−1 DEAE-dextran) were added and incubated for 48 hours. The 96 well plates were centrifuged, and the supernatant was removed leaving only 50 μL in each well. The Bright-Glo™ Luciferase substrate (Anatech Instruments (Pty) Ltd) (50 μL) was added to each well and incubated for 2 minutes in the dark and chemiluminescence readings were taken in a Corning® 96-well white polystyrene plate using a SpectraMax® Paradigm® Multi-Mode Microplate Reader.

HIV-1 Q23 pseudovirus = assay: HIV-1 whole virus inhibition assay, Q23 pseudovirus (luciferase, TZM-bl cells); type: cell-based; conditions: TZM-bl, 48 h, read-out: IC50 (μM) Q23, Q23 pseudovirus, TZM-bl cells, 48 hours
Procedure: as §1, §2

[1] = Cytotoxicity in TZM-bl cells by MTT assay; type: cell-based; conditions: human, MTT assay, 48 hours, mean ± SEM
Procedure: All cell culture reagents and cell growth medium were purchased from Sigma-Aldrich/Merck. The cell lines are TZM-bl cells (HeLa cells derived cell that is genetically engineered to contain CD4 and CCR5/CXCR4 receptor) were obtained from NIH AIDS Reagent Program and HEK 293T (derived from human embryonic kidney cells) were received as donations from the lab of Dr Patience Mthunzi, Biophotonics laboratory, CSIR. […] The cells were cultured in T-75 culture flasks (Lasec SA (Pty) Ltd Johannesburg) in Dulbecco's modified Eagle's medium (DMEM) with 3.7 g L^−1 […], 0.05% (v/v) gentamicin/mL, 1% penicillin/streptomycin and 10% heat-inactivated fetal bovine serum (Celtic Molecular Diagnostics). All incubations for tissue cell culture were conducted in a 37 °C, 5% CO2, and 95% humidity incubator.
(§3) The cytotoxicity of compounds was evaluated in TZM-bl cells since these cells are susceptible to HIV infections and would be used for the evaluation of HIV entry inhibition by 3-benzoylbenzofurans and pyrazole derivatives.[74] MTT dye (3-(4,5-dimethylthiazol-2-yl)-2,5-diphenyltetrazolium bromide), which is reduced by viable cells to produce […] purple formazan, was then measured and correlated with cell viability.[75] TZM-bl cells were cultured to confluency in DMEM containing 10% FBS and harvested by centrifugation at 1200 × g for 5 minutes. The cells were counted at 1 × 10^5 cells per mL per well and were seeded overnight, followed by treatment with serially diluted compounds from 500 to 0.98 μM for 48 hours. The peripheral blood mononuclear cells (PBMCs) were isolated from the blood of HIV-negative volunteers, treated with phytohaemagglutinin-protein (PHA, 4 μg mL^−1) to stimulate the cells for 2 hours. PBMCs were diluted in RPMI-1640 medium, counted and 1 × 10^6 cells per mL were treated with compounds (500 to 0.98 μM) for 48 hours. Cells were harvested by centrifugation at 1200 × g for 5 minutes, and the supernatants were removed. For the PBMCs, MTS dye (3-(4,5-dimethylthiazol-2-yl)-5-(3-carboxymethoxyphenylo)-2-(4-sulfophenyl)-2H-tetrazolium) was used.[76] A 100 μL of tetrazolium dye (5 mg mL^−1 MTT prepared in DMEM or 1 : 9 dilution MTS prepared in RPMI-1640) was added to the wells and incubated for 4 to 24 hours. MTT samples were solubilized with 100 μL solubilization buffer (1 mL HCl: 9 mL isopropanol) for 30 minutes, and the absorbance reading was taken at 550 nm and 690 nm wavelengths. MTS sample readings were taken at 490 nm without a solubilization step using the SpectraMax^R Paradigm^R Multi-Mode Detection Platform plate reader (Molecular Devices, California, USA).

[2] = Cytotoxicity in PBMCs by MTS assay; type: cell-based; conditions: human, peripheral blood mononuclear cells (PBMCs), PHA-stimulated, HIV-negative PBMCs
Procedure: as §3

CAP210 pseudovirus = assay: Time of drug addition assay, CAP210 pseudovirus in TZM-bl cells; type: cell-based, HIV-1; conditions: 3 μM, added 0, 2, 4, 6, 8 hours post-infection
Procedure: Fig. 5 Time of addition assay of CAP210 HIV infection treated with active compounds. TZM-bl cells were infected with CAP210 pseudoviruses and treated with compounds at various hours post-infection. NVP, 3g, and 4b were used at 3 μM, while 5f and 5h were used at 25 μM. The bars represent the mean ± SEM obtained from three independent experiments.
TZM-bl cells (1 × 10^5 cells per mL containing 7.5 μg mL^−1 DEAE-dextran) were infected with CAP210 pseudovirus at 400 TCID50 and incubated at 37 °C for 48 hours. The compounds were added to the wells at various time points (0, 2, 4, 6, and 8 hours) post-infection. […] After 48 hours, the cells were centrifuged at 1200 × g for 5 minutes, culture media was removed, leaving 50 μL, and Bright-Glo substrate (50 μL) was added to detect luciferase activity for 2 minutes at 37 °C. Inhibition of HIV pseudoviruses by active compounds was detected by reading for chemiluminescence using a Corning® 96-well white polystyrene using the SpectraMax® Paradigm® Multi-Mode Microplate Reader.

HIV-1 PR = biological target: T1, HIV-1 PR (Human immunodeficiency virus type 1 group M subtype B, UniProt P04585); assay: HIV-1 protease inhibition assay (fluorogenic substrate); type: biochemical; conditions: for SI (HIV-1 PR): CC50 PBMCs / IC50 HIV-1 PR
T1 construct: 2 μL recombinant HIV-PR (0.2 μg mL^−1) was added only to reaction wells
Procedure: Compounds were serially diluted in protease assay buffer (0.1 M CH3COONa, 1 M NaCl, 1 mM EDTA, 1 mM DTT, and 1 mg mL^−1 BSA; pH 4.7), making a final concentration of 75 to 9.4 μM, and 49 μL of compounds were added to wells. 49 μL protease substrate 1 (10 μM) was added to each well, and 2 μL recombinant HIV-PR (0.2 μg mL^−1) was added only to reaction wells except for reaction blanks, where it was replaced with 2 μL assay buffer. The solutions were mixed and incubated at 37 °C for 1 hour. Endpoint fluorescence readings at an excitation wavelength of 370 nm and an emission wavelength of 520 nm.

COc1cc(F)ccc1C(=O)c1coc2ccc(O)cc12 [3f, (4-fluoro-2-methoxyphenyl)(5-hydroxy-1-benzofuran-3-yl)methanone]
IC50 (HIV-1 CAP210 pseudovirus): 11.2 ± 0.31 µM | IC50 (HIV-1 Q23 pseudovirus): 40.6 ± 7.85 µM | CC50 at 48 h [1]: 41.9 ± 6.33 µM

COc1ccc(C(=O)c2coc3ccc(O)cc23)c(OC)c1OC [3g, (5-Hydroxybenzofuran-3-yl)(2,3,4-trimethoxyphenyl)methanone]
CC50 at 48 h [2]: 89.5 ± 11.6 µM | inhibition of HIV infection by time of addition (CAP210 pseudovirus): inhibit HIV infections for up to 8 hours | IC50 (HIV-1 PR): 70.9 ± 12.4 µM | SI (HIV-1 PR) (HIV-1 PR): 1.3 | CC50 at 48 h [1]: 79.9 ± 7.25 µM

COc1ccc(OC)c(C(=O)c2coc3ccc(O)cc23)c1 [3h, (5-Hydroxybenzofuran-3-yl)(2,5-dimethoxyphenyl)methanone]
IC50 (HIV-1 CAP210 pseudovirus): 4.45 ± 0.82 µM | IC50 (HIV-1 Q23 pseudovirus): 5.74 ± 1.51 µM | CC50 at 48 h [1]: 50 ± 10.5 µM

COc1ccc(OC)c(C(=O)c2coc3cc(C)c(OC)c(C)c23)c1 [4a, (2,5-Dimethoxyphenyl)(5-methoxy-4,6-dimethyl-1-benzofuran-3-yl)methanone]
IC50 (HIV-1 CAP210 pseudovirus): 8.12 ± 2.56 µM | IC50 (HIV-1 Q23 pseudovirus): 18.1 ± 1.78 µM | CC50 at 48 h [1]: 59.1 ± 6.56 µM

COc1ccc(OC)c(C(=O)c2coc3c(C)cc(OC)c(C)c23)c1 [4b, (2,5-Dimethoxyphenyl)(5-methoxy-4,7-dimethyl-1-benzofuran-3-yl)methanone]
CC50 at 48 h [2]: 41.3 ± 6.78 µM | inhibition of HIV infection by time of addition (CAP210 pseudovirus): inhibit HIV infections for up to 8 hours | IC50 (HIV-1 PR): 57.5 ± 10.1 µM | SI (HIV-1 PR) (HIV-1 PR): 0.7 | CC50 at 48 h [1]: 8.42 ± 1.16 µM

COc1ccc(OC)c(C(=O)c2coc3c2cc(OC)c2ccccc23)c1 [4c, (2,5-Dimethoxyphenyl)(5-methoxynaphtho[1,2-b]furan-3-yl)methanone]
IC50 (HIV-1 CAP210 pseudovirus): 2.43 ± 1.28 µM | IC50 (HIV-1 Q23 pseudovirus): 12.6 ± 0.53 µM | CC50 at 48 h [1]: 9.65 ± 2.37 µM

COc1ccc(Br)cc1C(=O)c1coc2c1cc(OC)c1ccccc12 [4d, (5-Bromo-2-methoxyphenyl)(5-methoxynaphtho[1,2-b]furan-3-yl)methanone]
IC50 (HIV-1 CAP210 pseudovirus): 3.28 ± 1.48 µM | IC50 (HIV-1 Q23 pseudovirus): 22.4 ± 3.47 µM | CC50 at 48 h [1]: 7.77 ± 1.54 µM

COc1cc(F)ccc1C(=O)c1coc2c1cc(OC)c1ccccc12 [4e, (4-Fluoro-2-methoxyphenyl)(5-methoxynaphtho[1,2-b]furan-3-yl)methanone]
IC50 (HIV-1 CAP210 pseudovirus): 4.27 ± 0.19 µM | IC50 (HIV-1 Q23 pseudovirus): 20.9 ± 2.2 µM | CC50 at 48 h [1]: 35.2 ± 2.32 µM
